{
  "source": "patent US20110003773A1",
  "about": "“USING FULLERENES TO ENHANCE AND STIMULATE HAIR GROWTH” (Luna Innovations Incorporated, priority 2008, published 2011)",
  "test_system": "shaved C57/B6 mice",
  "assay": "Hair growth in shaved C57/B6 mice after injection at the shaved site",
  "type": "in vivo",
  "conditions": "300 μl of 1 μg/ml in PBS injected at the shaved site every day for 12 days, vs PBS",
  "description": "The backs of C57/B6 mice were shaved bald on the intracapsular part of the back. 300 μl of phosphate buffered saline (PBS) or 300 μl of 1 μg/ml of compound 5 (labelled LnW0033 in FIG. 2) in PBS was injected at the shaved site every day for 12 days.\nThe backs of C57/B6 mice were shaved bald on the intracapsular part of the back. 300 μl PBS or 300 μl of 1 μg/ml Polyhydroxy-C60 (C60(OH)˜18-24; BuckyUSA, Houston, Tex.; called “Poly C60” in FIG. 3) in PBS was injected at the shaved site every day for 12 days.",
  "data": [
    {"substance": "Polyhydroxy-C60", "values": [
      {"measurement": "hair growth (photograph at day 12) compared to control", "value": "hair growth enhancement"}
    ]}
  ]
}
